ChEMBL document CHEMBL1148063, “(+/-)-Gelliusines A and B, two diastereomeric brominated tris-indole alkaloids from a deep water new caledonian marine sponge (Gellius or Orina sp.)” (J Nat Prod, 1994)
≈ marks a conversion by molar mass, not a printed value. Calls of active or inactive are those of the source. No cut-off for these calls is given here.

Key:
[1] = Cytotoxicity against human NSCLC-N6 cells; format: functional, cell-based
KB = assay: Cytotoxicity against human KB cells; format: functional, cell-based
Cavia porcellus = species: Cavia porcellus; assay: Antagonist activity at serotonin receptor in guinea pig ileum; format: functional, tissue-based
P388 [2] = assay: Cytotoxicity against mouse doxorubicin-resistant P388 cells; format: functional, cell-based
P388 [3] = assay: Cytotoxicity against mouse P388 cells; format: functional, cell-based
HT-29 = assay: Cytotoxicity against human HT-29 cells; format: functional, cell-based
Ileum [4] = assay: Inhibition of serotonin-induced contraction in guinea pig ileum at 4 ug/ml; format: functional, tissue-based; conditions: Cavia porcellus
Ileum [5] = assay: Inhibition of acetylcholine-induced contraction in guinea pig ileum at 0.2 ug/ml; format: functional, tissue-based; conditions: Cavia porcellus
Ileum [6] = assay: Inhibition of acetylcholine-induced contraction in guinea pig ileum at 0.5 ug/ml; format: functional, tissue-based; conditions: Cavia porcellus

NCCc1c(C(CN)c2c[nH]c3cc(Br)ccc23)[nH]c2cc(C(CN)c3c[nH]c4cc(Br)ccc34)c(O)cc12 (racemic) [GELLIUSINE A]
IC50 [1]: 10 µg/mL (≈ 15.4 µM)
IC50 (KB): 10 µg/mL (≈ 15.4 µM)
Activity (Cavia porcellus): Active
IC50 (P388 [2]): 10 µg/mL (≈ 15.4 µM)
IC50 (P388 [3]): 10 µg/mL (≈ 15.4 µM)
IC50 (HT-29): 10 µg/mL (≈ 15.4 µM)
Activity (Ileum [4]): Active

CC(C)NCC(O)COc1cccc2ccccc12 (centres undefined)
Activity (Ileum [5]): inactive

CC(COc1ccccc1)N(CCCl)Cc1ccccc1 (centres undefined)
Activity (Ileum [6]): inactive
